This note sets out measurements from patent US20250206732A1, “COMPOUNDS AND METHODS FOR THE TARGETED DEGRADATION OF KRAS” (Arvinas Operations, Inc., priority 2022, published 2025).

Each structure is given as a SMILES string. A value given as a limit tells only on which side of the number the result lay.

The target of this assay is T1, AsPC-1 HiBiT-KRASG12D (Homo sapiens, UniProt P01116, G12D).
T1 construct: insert the HiBiT tag onto the N-terminus of one or more of the endogenous KRAS alleles; endogenous in cells; host or cells: AsPC-1 (ATCC CRL-1682), CRISPR-Cas9 knock-in clone, one tagged allele
The experiment in a line: HiBiT degradation assay (G12D), AsPC-1 HiBiT-KRASG12D cells. In kind it is cell-based. As to conditions: 24 hours treatment; for Dmax: ASPC1, AsPC-1 HiBiT-KRASG12D cells, maximum degradation observed; for DC50: AsPC-1 HiBiT-KRASG12D cells, HiBiT luminescence. The source says:
Reagents. […] SW1573 cells are homozygous for the G12C mutation in KRAS, AsPC-1 cells are homozygous for the G12D mutation, and SW620 cells are homozygous for the G12V mutation. […] For degradation assays, 384 well plates were used. Alamar blue was purchased from ThermoFisher scientific (A50101) and used according to manufacturer instructions. The Nano-Glo® HiBiT Lytic Detection System and Nano-Glo® HiBiT Blotting System were purchased from Promega (#N3050 and #N2410) and used according to manufacturer instructions.
To create the AsPC-1 HiBiT-KRASG12D cell line, CRISPR-Cas9 was used to insert the HiBiT tag onto the N-terminus of one or more of the endogenous KRAS alleles. […] After knock-in of the tag, individual clones were isolated by single cell dilution and screened for HiBiT insertion by PCR. […] This clone was used in further studies.
HiBiT degradation assays (G12C and G12D). […] All assays were performed in triplicate. Cells were treated with compounds for 24 hours at 37° C. in an incubator containing 5% CO2. Following treatment, alamar blue was used to determine if any compounds led to a loss in cell viability after 24 hours. The 10× alamar blue reagent was added to a final concentration of 1× as recommended by the manufacturer and cells were returned to the incubator for 4 hours. Plates were then allowed to equilibrate to room temperature and fluorescence was measured using a Perkin-Elmer EnVision. After completion of the fluorescence read, the liquid from each well was removed and the cells were washed with PBS. The Nano-Glo® HiBiT detection reagent was prepared according to the manufacturer's instructions and added to each well after the PBS wash was removed. Following incubation at room temperature for 45 minutes, the luminescence was read using the ultra-sensitive luminescence aperture on the Envision instrument.
Data analysis. Fluorescence values from the alamar blue treatment were normalized to the DMSO-only control for each compound titration.

T1 sequence (P01116 1-188 isoform P01116-2 G12D): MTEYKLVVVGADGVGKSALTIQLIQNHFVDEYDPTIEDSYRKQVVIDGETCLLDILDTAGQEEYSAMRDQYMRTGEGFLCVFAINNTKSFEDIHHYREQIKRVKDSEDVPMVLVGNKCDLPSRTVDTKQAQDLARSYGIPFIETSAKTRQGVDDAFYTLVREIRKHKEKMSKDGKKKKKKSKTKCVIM

In general, Dmax refers to the greatest extent of degradation seen. A higher Dmax goes with a fuller loss of target. As a reminder, the DC50 is the midpoint of the concentration-degradation curve. Read a high DC50 as a less potent degrader. `CCc1cccc2cc(O)cc(-c3ncc4c(N5CC6CCC(C5)N6)nc(OC[C@]56CCCN5[C@H](COC(=O)N5CC(COc7cc([C@@H](C(=O)N8C[C@H](O)C[C@H]8C(=O)N[C@@H](C)c8ccc(-c9scnc9C)cc8)C(C)C)on7)C5)CC6)nc4c3F)c12` [Compound 122, [(3S,7aR)-7a-{[(4-{3,8-diazabicyclo[3.2.1]octan-3-yl}-7-(8-ethyl-3-hydroxynaphthalen-1-yl)-8-fluoropyrido[4,3-d]pyrimidin-2-yl)oxy]methyl}-hexahydro-1H-pyrrolizin-3-yl]methyl 3-[({5-[(2S)-1-[(2S,4R)-4-hydroxy-2-{[(1S)-1-[4-(4-methyl-1,3-thiazol-5-yl)phenyl]ethyl]carbamoyl}pyrrolidin-1-yl]-3-methyl-1-oxobutan-2-yl]-1,2-oxazol-3-yl}oxy)methyl]azetidine-1-carboxylate] showed a maximal degradation (Dmax) of 20 to 60% and a DC50 of 600 to 1000 nM.

Molecule `CCc1cccc2cc(O)cc(-c3ncc4c(N5CC6CCC(C5)N6)nc(OCCN5CCC(CN6CCN(c7cc([C@@H](C(=O)N8C[C@H](O)C[C@H]8C(=O)N[C@@H](C)c8ccc(-c9ccnn9C)cc8)C(C)C)on7)CC6)CC5)nc4c3F)c12` [Compound 201, (2S,4R)-1-[(2S)-2-(3-{4-[(1-{2-[(4-{3,8-diazabicyclo[3.2.1]octan-3-yl}-7-(8-ethyl-3-hydroxynaphthalen-1-yl)-8-fluoropyrido[4,3-d]pyrimidin-2-yl)oxy]ethyl}piperidin-4-yl)methyl]piperazin-1-yl}-1,2-oxazol-5-yl)-3-methylbutanoyl]-4-hydroxy-N-[(1S)-1-[4-(1-methyl-1H-pyrazol-5-yl)phenyl]ethyl]pyrrolidine-2-carboxamide] showed a DC50 greater than 3000 nM. With `CCc1cccc2cc(O)cc(-c3ncc4c(N5CC6CCC(C5)N6)nc(OC[C@@H]5CC[C@@H](COC(=O)N6CC(Oc7cc([C@@H](C(=O)N8C[C@H](O)C[C@H]8C(=O)N[C@@H](C)c8ccc(-c9scnc9C)cc8)C(C)C)on7)C6)N5C)nc4c3F)c12` [Compound 291], the Dmax was less than 20% and the half-maximal degradation concentration (DC50) is less than 600 nM. The corresponding values for `CCc1cccc2cc(O)cc(-c3ncc4c(N5CC6CCC(C5)N6)nc(OCCN5CCC(O)(CC6CCN(c7cc([C@H](C(=O)N8C[C@H](O)C[C@H]8C(=O)N[C@@H](C)c8ccc(-c9scnc9C)cc8)C(C)C)on7)CC6)CC5)nc4c3F)c12` [Compound 204, (2S,4R)-1-[(2R)-2-(3-{4-[(1-{2-[(4-{3,8-diazabicyclo[3.2.1]octan-3-yl}-7-(8-ethyl-3-hydroxynaphthalen-1-yl)-8-fluoropyrido[4,3-d]pyrimidin-2-yl)oxy]ethyl}-4-hydroxypiperidin-4-yl)methyl]piperidin-1-yl}-1,2-oxazol-5-yl)-3-methylbutanoyl]-4-hydroxy-N-[(1S)-1-[4-(4-methyl-1,3-thiazol-5-yl)phenyl]ethyl]pyrrolidine-2-carboxamide] are 80 to 100% and less than 600 nM. Molecule `CCc1cccc2cc(O)cc(-c3ncc4c(N5CC6CCC(C5)N6)nc(OCCN5CCN(CC6CN(c7cc([C@H](C(=O)N8C[C@H](O)C[C@H]8C(=O)N[C@@H](C)c8ccc(-c9scnc9C)cc8)C(C)C)on7)C6)CC5)nc4c3F)c12` [Compound 220, (2S,4R)-1-[(2R)-2-(3-{3-[(4-{2-[(4-{3,8-diazabicyclo[3.2.1]octan-3-yl}-7-(8-ethyl-3-hydroxynaphthalen-1-yl)-8-fluoropyrido[4,3-d]pyrimidin-2-yl)oxy]ethyl}piperazin-1-yl)methyl]azetidin-1-yl}-1,2-oxazol-5-yl)-3-methylbutanoyl]-4-hydroxy-N-[(1S)-1-[4-(4-methyl-1,3-thiazol-5-yl)phenyl]ethyl]pyrrolidine-2-carboxamide] yielded a Dmax of 80 to 100% and a DC50 of less than 600 nM.

`CCc1cccc2cc(O)cc(-c3ncc4c(N5CC6CCC(C5)N6)nc(OCCN5CCC(CC6CN(CC(=O)N[C@H](C(=O)N7C[C@H](O)C[C@H]7C(=O)N[C@@H](C)c7ccc(-c8scnc8C)cc7)C(C)(C)C)C6)CC5)nc4c3F)c12` [Compound 273, (2S,4R)-1-[(2S)-2-(2-{3-[(1-{2-[(4-{3,8-diazabicyclo[3.2.1]octan-3-yl}-7-(8-ethyl-3-hydroxynaphthalen-1-yl)-8-fluoropyrido[4,3-d]pyrimidin-2-yl)oxy]ethyl}piperidin-4-yl)methyl]azetidin-1-yl}acetamido)-3,3-dimethylbutanoyl]-4-hydroxy-N-[(1S)-1-[4-(4-methyl-1,3-thiazol-5-yl)phenyl]ethyl]pyrrolidine-2-carboxamide] displayed a maximal degradation (Dmax) of 80 to 100% and a DC50 of less than 600 nM. The like results for `C#Cc1c(F)ccc2cc(O)cc(-c3ncc4c(N5CC6CCC(C5)N6)nc(OCCN5CCC6(CC5)CN(c5cc([C@@H](C(=O)N7C[C@H](O)C[C@H]7C(=O)N[C@@H](C)c7ccc(-c8ccnn8C)cc7)C(C)C)on5)C6)nc4c3F)c12` (relative stereo) [Compound 84, (2S,4R)-1-[(2R*)-2-[3-(7-{2-[(4-{3,8-diazabicyclo[3.2.1]octan-3-yl}-7-(8-ethynyl-7-fluoro-3-hydroxynaphthalen-1-yl)-8-fluoropyrido[4,3-d]pyrimidin-2-yl)oxy]ethyl}-2,7-diazaspiro[3.5]nonan-2-yl)-1,2-oxazol-5-yl]-3-methylbutanoyl]-4-hydroxy-N-[(1S)-1-[4-(1-methyl-1H-pyrazol-5-yl)phenyl]ethyl]pyrrolidine-2-carboxamide] were, in that order, 60 to 80% and 1000 to 3000 nM. In the case of `CCc1cccc2cc(O)cc(-c3ncc4c(N5CC6CCC(C5)N6)nc(OCCN5CC[C@H]6CN(c7cc([C@H](C(=O)N8C[C@H](O)C[C@H]8C(=O)N[C@@H](C)c8ccc(-c9scnc9C)cc8)C(C)C)on7)C[C@H]6C5)nc4c3F)c12` (relative stereo) [Compound 69, (2S,4R)-1-[(2R*)-2-{3-[(3aR**,7aR***)-5-{2-[(4-{3,8-diazabicyclo[3.2.1]octan-3-yl}-7-(8-ethyl-3-hydroxynaphthalen-1-yl)-8-fluoropyrido[4,3-d]pyrimidin-2-yl)oxy]ethyl}-octahydro-1H-pyrrolo[3,4-c]pyridin-2-yl]-1,2-oxazol-5-yl}-3-methylbutanoyl]-4-hydroxy-N-[(1S)-1-[4-(4-methyl-1,3-thiazol-5-yl)phenyl]ethyl]pyrrolidine-2-carboxamide], the Dmax lay within 80 to 100% and the DC50 was less than 600 nM. Turning to `C#Cc1c(F)ccc2cc(O)cc(-c3ncc4c(N5CC6CCC(C5)N6)nc(OCCN5CCC(CN6CCN(c7cc([C@@H](C(=O)N8C[C@H](O)C[C@H]8C(=O)N[C@@H](C)c8ccc(-c9ccnn9C)cc8)C(C)C)on7)CC6)CC5)nc4c3F)c12` [Compound 170, (2S,4R)-1-[(2S)-2-(3-{4-[(1-{2-[(4-{3,8-diazabicyclo[3.2.1]octan-3-yl}-7-(8-ethynyl-7-fluoro-3-hydroxynaphthalen-1-yl)-8-fluoropyrido[4,3-d]pyrimidin-2-yl)oxy]ethyl}piperidin-4-yl)methyl]piperazin-1-yl}-1,2-oxazol-5-yl)-3-methylbutanoyl]-4-hydroxy-N-[(1S)-1-[4-(1-methyl-1H-pyrazol-5-yl)phenyl]ethyl]pyrrolidine-2-carboxamide], the Dmax was 20 to 60% and the 50% degradation concentration (DC50) was in the range of 1000 to 3000 nM.

In the case of `CCc1cccc2cc(O)cc(-c3ncc4c(N5CC6CCC(C5)N6)nc(OC[C@]56CCCN5[C@H](COC(=O)N5CCN(c7cc(C(C(=O)N8C[C@H](O)C[C@H]8C(=O)N[C@@H](C)c8ccc(-c9scnc9C)cc8)C(C)C)on7)CC5)CC6)nc4c3F)c12` (single isomer, unassigned) [Compound 109, [(3S,7aR)-7a-{[(4-{3,8-diazabicyclo[3.2.1]octan-3-yl}-7-(8-ethyl-3-hydroxynaphthalen-1-yl)-8-fluoropyrido[4,3-d]pyrimidin-2-yl)oxy]methyl}-hexahydro-1H-pyrrolizin-3-yl]methyl 4-{5-[(2R*)-1-[(2S,4R)-4-hydroxy-2-{[(1S)-1-[4-(4-methyl-1,3-thiazol-5-yl)phenyl]ethyl]carbamoyl}pyrrolidin-1-yl]-3-methyl-1-oxobutan-2-yl]-1,2-oxazol-3-yl}piperazine-1-carboxylate], the Dmax lay in the range of 80 to 100% and the 50% degradation concentration (DC50) is less than 600 nM.

Consider `CCc1cccc2cc(O)cc(-c3ncc4c(N5CC6CCC(C5)N6)nc(OCCN5CCC(C)(COc6cc([C@@H](C(=O)N7C[C@H](O)C[C@H]7C(=O)N[C@@H](C)c7ccc(-c8scnc8C)cc7)C(C)C)on6)CC5)nc4c3F)c12` [Compound 31, (2S,4R)-1-[(2S)-2-{3-[(1-{2-[(4-{3,8-diazabicyclo[3.2.1]octan-3-yl}-7-(8-ethyl-3-hydroxynaphthalen-1-yl)-8-fluoropyrido[4,3-d]pyrimidin-2-yl)oxy]ethyl}-4-methylpiperidin-4-yl)methoxy]-1,2-oxazol-5-yl}-3-methylbutanoyl]-4-hydroxy-N-[(1S)-1-[4-(4-methyl-1,3-thiazol-5-yl)phenyl]ethyl]pyrrolidine-2-carboxamide], for which the DC50 was greater than 3000 nM.
